target: T1, Aromatase (Homo sapiens, UniProt P11511); experiment: Inhibition of aromatase (unknown origin); design: inhibition (INH): concentration or dose not given beside the values; details: not given
T1 sequence (P11511 whole entry): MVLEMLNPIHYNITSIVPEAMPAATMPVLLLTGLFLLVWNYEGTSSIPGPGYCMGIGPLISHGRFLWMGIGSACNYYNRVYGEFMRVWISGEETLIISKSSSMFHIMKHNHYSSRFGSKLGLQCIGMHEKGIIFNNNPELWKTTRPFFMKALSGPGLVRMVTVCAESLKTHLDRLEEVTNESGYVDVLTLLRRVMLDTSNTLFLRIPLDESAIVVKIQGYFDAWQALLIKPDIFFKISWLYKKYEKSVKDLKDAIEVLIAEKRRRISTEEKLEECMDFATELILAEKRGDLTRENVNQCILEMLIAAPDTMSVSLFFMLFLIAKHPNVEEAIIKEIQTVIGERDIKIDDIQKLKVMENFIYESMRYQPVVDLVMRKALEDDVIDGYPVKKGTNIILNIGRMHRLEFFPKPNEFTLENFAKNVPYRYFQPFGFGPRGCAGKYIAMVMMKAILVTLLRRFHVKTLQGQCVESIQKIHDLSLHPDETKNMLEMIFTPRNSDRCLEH

| Structure (SMILES) | IC50 [nM] | Ki [nM] |
| --- | --- | --- |
| COC(=O)C1=C(C)NC(C)=C(C(=O)OC)C1C[C@H]1C[C@@H]2[C@H](CC[C@]3(C)C(=O)CC[C@@H]23)[C@@]2(C)C=CC(=O)C=C12 | 10000 |  |
| CC1(C)C[C@@]2(C)C(=C(O)C1=O)C(=O)C[C@@H]1[C@@H]2CC[C@]2(C)C(=O)CC[C@@H]12 |  | 40 |
| C[C@]12CC[C@H]3[C@@H](CCC4=CC(=O)CC[C@@]43[C@@H]3CN3)[C@@H]1CCC2=O |  | 3.4 |
| C[C@]12CC[C@H]3[C@@H](CCC4=CC(=O)CC[C@@]43[C@H]3CN3)[C@@H]1CC[C@@H]2O |  | 3.4 |
| C[C@]12CC[C@H]3[C@@H](CCC4=CC(=O)CC[C@@]43[C@H]3CN3)[C@@H]1CCC2=O |  | 3.4 |
| CC(=O)O[C@H]1[C@@H]2[C@H](CC[C@]3(C)C(=O)CC[C@@H]23)[C@@]2(C)CCC(=O)C=C2[C@@H]1N=[N+]=[N-] | 400 |  |
| CC1(C)C[C@@]2(C)C(=CC1=O)C(=O)C[C@@H]1[C@@H]2CC[C@]2(C)C(=O)CC[C@@H]12 |  | 25 |
| C[C@]12CC[C@H]3[C@@H](CCC4=CC(=O)CC[C@@]43[C@@H]3CN3)[C@@H]1CC[C@@H]2O |  | 3.4 |
| C[C@]12CCC(=O)C(O)=C1C(=O)C[C@@H]1[C@@H]2CC[C@]2(C)C(=O)CC[C@@H]12 |  | 42 |

same assay, conditions: human

| Structure (SMILES) | inhibition (INH) [%] |
| --- | --- |
| C[C@]12CC[C@H]3[C@@H](CC[C@H]4CC(=O)C[C@H]5[C@@H](O)[C@]435)[C@@H]1CCC2=O | 40 |
| C[C@]12CC[C@H]3[C@@H](CC[C@H]4C[C@@]5(O)C[C@H]6[C@H](O5)[C@]436)[C@@H]1CCC2=O | 40 |
| CC(=O)O[C@@H]1[C@@H]2CC(=O)C[C@@H]3CC[C@@H]4[C@H](CC[C@]5(C)C(=O)CC[C@@H]45)[C@@]312 | 40 |
| CC(=O)[C@@]1(C)CC[C@H]2[C@@H](CCC3=C(O)C(=O)CC[C@@]32C)C1CC#N (stereo partly specified) | 46.5 |

target: T1, Aromatase; experiment: Competitive inhibition of human aromatase extracted from placental microsomes by Dixon plot analysis in presence of [1beta-3H]androstenedione; details: read-out: Ki

| Structure (SMILES) | Ki [nM] |
| --- | --- |
| C[C@]12CCCCC1=CC(=O)[C@@H]1[C@@H]2CC[C@]2(C)C(=O)CC[C@@H]12 | 143 |

target: T1, Aromatase; details: not given

| Structure (SMILES) | Ki [nM] |
| --- | --- |
| C[C@]12CC[C@@H]3c4cc(Cl)c(O)cc4CC[C@H]3[C@@H]1CCC2=O | 100 |
| C[C@]12CC[C@@H]3c4cc(F)c(O)cc4CC[C@H]3[C@@H]1CC[C@@H]2O | 100 |
| C[C@]12CC[C@@H]3c4cc(Br)c(O)cc4CC[C@H]3[C@@H]1CC[C@@H]2O | 100 |
| C[C@]12CC[C@@H]3c4cc(Br)c(O)cc4CC[C@H]3[C@@H]1CCC2=O | 100 |
| Cc1cc2c(cc1O)CC[C@@H]1[C@@H]2CC[C@]2(C)[C@@H](O)CC[C@@H]12 | 100 |
| C[C@]12CC[C@@H]3c4ccc(O)cc4[C@H](Cc4ccccc4)C[C@H]3[C@@H]1CCC2=O | 100 |
| C[C@]12CC[C@@H]3c4ccc(O)cc4[C@@H](CCCc4ccccc4)C[C@H]3[C@@H]1CC[C@@H]2O | 100 |
| C[C@]12CC[C@@H]3c4ccc(O)cc4[C@H](Cc4ccccc4)C[C@H]3[C@@H]1CC[C@@H]2O | 100 |
| C[C@]12CC[C@H]3[C@@H](C(=O)[C@H]4O[C@]45C(=O)CCC[C@]35C=O)[C@@H]1CCC2=O | 5000 |
| C[C@]12CC[C@H]3[C@@H](CC[C@]45O[C@H]4C(=O)CC[C@]35C=O)[C@@H]1CCC2=O | 5000 |
| C[C@@H]1C[C@@H]2[C@H](CC[C@]3(C)[C@@H](O)CC[C@@H]23)c2ccc(O)cc21 | 100 |
| C[C@]12CC[C@@H]3c4ccc(O)cc4[C@H](CCCc4ccccc4)C[C@H]3[C@@H]1CCC2=O | 100 |
| C[C@]12CC[C@H]3[C@@H](CC[C@]45O[C@H]4C(=O)CC[C@]35C)[C@@H]1CCC2=O | 5000 |
| Cc1cc2c(cc1O)CC[C@@H]1[C@@H]2CC[C@]2(C)C(=O)CC[C@@H]12 | 100 |
| C[C@]12CC[C@@H]3c4ccc(O)cc4[C@@H](Cc4ccccc4)C[C@H]3[C@@H]1CC[C@@H]2O | 100 |
| C[C@]12CC[C@@H]3c4ccc(O)cc4[C@@H](CCCc4ccccc4)C[C@H]3[C@@H]1CCC2=O | 100 |
| C[C@]12CC[C@@H]3c4cc(Cl)c(O)cc4CC[C@H]3[C@@H]1CC[C@@H]2O | 100 |
| C[C@]12CC[C@@H]3c4ccc(O)cc4[C@H](CCCc4ccccc4)C[C@H]3[C@@H]1CC[C@@H]2O | 100 |
| C[C@]12CC[C@@H]3c4cc(F)c(O)cc4CC[C@H]3[C@@H]1CCC2=O | 100 |
| C[C@]12CC[C@@H]3c4ccc(O)cc4[C@@H](Cc4ccccc4)C[C@H]3[C@@H]1CCC2=O | 100 |
| C[C@H]1C[C@@H]2[C@H](CC[C@]3(C)[C@@H](O)CC[C@@H]23)c2ccc(O)cc21 | 100 |
| C[C@]12CC[C@H]3[C@@H](CC[C@]45O[C@H]4C(=O)CC[C@]35CO)[C@@H]1CCC2=O | 5000 |
| C[C@]12CCC(=O)C=C1CC[C@@H]1[C@@H]2CC[C@]2(C)C(=O)CC[C@@H]12 [ANDROSTENEDIONE] | 35 |
| C[C@]12CC[C@@H]3c4ccc(O)cc4CC[C@H]3[C@@H]1CCC2=O [ESTRONE] | 2500 |

target: T1, Aromatase; details: not given; remark: another data set of the same source

| Structure (SMILES) | Ki [nM] |
| --- | --- |
| C[C@]12CCC(=O)C=C1C[C@@H](CCc1ccccc1)[C@@H]1[C@@H]2CC[C@]2(C)C(=O)CC[C@@H]12 | 13.1 |
| C[C@]12CCC(=O)C=C1C[C@@H](Cc1ccccc1)[C@@H]1[C@@H]2CC[C@]2(C)C(=O)CC[C@@H]12 | 18.9 |
| C[C@]12CCC(=O)C=C1C[C@H](CCc1ccccc1)[C@@H]1[C@@H]2CC[C@]2(C)C(=O)CC[C@@H]12 | 36 |
| C[C@]12CCC(=O)C=C1C[C@H](Cc1ccccc1)[C@@H]1[C@@H]2CC[C@]2(C)C(=O)CC[C@@H]12 | 36 |
| C[C@]12CC[C@H]3[C@@H]([C@H](Cc4ccccc4)CC4=CC(=O)CC[C@@]43C)[C@@H]1CC[C@@H]2O | 36 |
| C[C@]12C=CC(=O)C=C1C[C@@H](CCc1ccc([N+](=O)[O-])cc1)[C@@H]1[C@@H]2CC[C@]2(C)C(=O)CC[C@@H]12 | 7 |
| CCSC1=C2CC[C@@H]3[C@H](CC[C@]4(C)C(=O)CC[C@@H]34)[C@@]2(C)CCC1=O | 36 |
| CSC1=C2CC[C@@H]3[C@H](CC[C@]4(C)C(=O)CC[C@@H]34)[C@@]2(C)CCC1=O | 36 |
| C[C@]12C=CC(=O)C=C1C[C@@H](Cc1ccccc1)[C@@H]1[C@@H]2CC[C@]2(C)C(=O)CC[C@@H]12 | 7 |
| C[C@]12CCCC=C1CC[C@@H]1[C@@H]2CC[C@]2(C)C(=O)[C@H](Br)C[C@@H]12 | 228 |
| C[C@]12CC[C@H]3[C@@H](CCC4=CCCC[C@@]43CO)[C@@H]1CC[C@@H]2O | 170 |
| CCCSC1=C2CC[C@@H]3[C@H](CC[C@]4(C)C(=O)CC[C@@H]34)[C@@]2(C)CCC1=O | 36 |
| C[C@]12CCC(=O)C=C1C=C(CCc1ccccc1)[C@@H]1[C@@H]2CC[C@]2(C)C(=O)CC[C@@H]12 | 60.9 |
| C[C@]12CCCC=C1[C@@H]1[C@H]([C@@H]3[C@@H]2CC[C@]2(C)C(=O)CC[C@@H]32)C1(F)F | 5 |
| C[C@]12C=CC(=O)C=C1C[C@@H](CCCc1ccc([N+](=O)[O-])cc1)[C@@H]1[C@@H]2CC[C@]2(C)C(=O)CC[C@@H]12 | 7 |
| C[C@]12CC[C@H]3[C@@H](CCC4=CCCC[C@@]43C(F)F)[C@@H]1CCC2=O | 170 |
| C[C@]12CCC(=O)C(OCc3ccccc3)=C1CC[C@@H]1[C@@H]2CC[C@]2(C)C(=O)CC[C@@H]12 | 38 |
| C[C@]12C=CC(=O)C=C1C[C@@H](CCCc1ccccc1)[C@@H]1[C@@H]2CC[C@]2(C)C(=O)CC[C@@H]12 | 7 |
| C[C@]12CC[C@H]3[C@@H]([C@H]4[C@@H](C5=CCCC[C@@]53C)C4(F)F)[C@@H]1CC[C@@H]2O | 5 |
| C#C[C@@H](OC(C)=O)[C@@]12CCC(=O)C=C1C(=O)C[C@@H]1[C@@H]2CC[C@]2(C)C(=O)CC[C@@H]12 | 75000 |
| C[C@]12C=CC(=O)C=C1C[C@@H](CCc1ccc(N)cc1)[C@@H]1[C@@H]2CC[C@]2(C)C(=O)CC[C@@H]12 | 7 |
| C[C@]12CCC(=O)C=C1[C@@H]1[C@H]([C@@H]3[C@@H]2CC[C@]2(C)C(=O)CC[C@@H]32)C1(F)F | 5 |
| CC(=O)SC1=C2CC[C@@H]3[C@H](CC[C@]4(C)C(=O)CC[C@@H]34)[C@@]2(C)CCC1=O | 36 |
| C[C@]12C=CC(=O)C=C1C[C@@H](CCc1ccccc1)[C@@H]1[C@@H]2CC[C@]2(C)C(=O)CC[C@@H]12 | 7 |
| C[C@]12CCC(=O)C=C1C=C(c1ccccc1)[C@@H]1[C@@H]2CC[C@]2(C)C(=O)CC[C@@H]12 | 1420 |
| C[C@]12CCCC=C1CC[C@@H]1[C@@H]2CC[C@]2(C)C(=O)[C@@H](Br)C[C@@H]12 | 455 |
| C[C@]12CCC(=O)C=C1C=C(Cc1ccccc1)[C@@H]1[C@@H]2CC[C@]2(C)C(=O)CC[C@@H]12 | 60.9 |
| C#C[C@H](OC(C)=O)[C@]12CCC(=O)C=C1C(=O)C[C@@H]1[C@@H]2CC[C@]2(C)C(=O)CC[C@@H]12 | 67000 |

From ChEMBL document CHEMBL3751755, “Developing steroidal aromatase inhibitors-an effective armament to win the battle against breast cancer” (Eur J Med Chem, 2015)
